From paper PMC8607231, “Generation of KS-133 as a Novel Bicyclic Peptide with a Potent and Selective VIPR2 Antagonist Activity that Counteracts Cognitive Decline in a Mouse Model of Psychiatric Disorders” (Frontiers in Pharmacology, 2021)
Where a SMILES comes first, the peptide text is derived from it. Bridges are numbered along the chain shown (N, C = ends).

Columns and labels:
[1] = test system: mouse model of psychiatric disorders on the basis of early postnatal activation of VIPR2; assay: Novel object recognition test in mouse model of early postnatal activation of VIPR2; format: in vivo; conditions: KS-133 1 nmol/g s.c. simultaneously with Ro 25-1553 0.07 nmol/g, P1-14
Procedure: For behavioral experiments, all litters were randomly divided into Ro 25-1553- and PBS-treated groups. From P1 to P14, mice were injected s.c. once daily with Ro 25-1553 at a dose of 0.07 nmol/g ([Ago et al., 2015]). Mice treated with PBS from P1 to P14 were used as the control. KS-133 or the vehicle was simultaneously injected with Ro 25-1553 or PBS. Animals were weaned at P21 and divided by gender at P28. We used male mice exclusively to minimize any potential variability due to sex-specific effects on behavioral performance. All groups were derived from at least four different litters to preclude possible differences in individual maternal behaviors as a mitigating factor in any subsequent long-lasting changes induced in the offspring. […]
The novel object recognition test was carried out in accordance with previous reports ([Takuma et al., 2014]; [Hara et al., 2016]). […] The exploration time for each object in the retention session was measured with a stopwatch. […]
FIGURE 5 Effects of early postnatal treatment with Ro 25-1553 and KS-133 on recognition memory in the novel object recognition test. […] (B) Discrimination index (%) was calculated as the difference between novel and familiar object exploration times divided by the total time spent exploring the two objects. Results are expressed as the mean ± S.E.M. of 15–20 mice per group. **p < 0.01.

[2] = test system: VIPR2 activation-induced phosphorylation of CREB; assay: Western blot of pCREB in prefrontal cortex of neonatal mice after s.c. injection; format: in vivo, mouse; conditions: ICR mice at P12, KS-133 1 nmol/g s.c. simultaneously with Ro 25-1553 0.4 nmol/g, 1 h after injection
Procedure: (§1) For western blot analysis, ICR neonatal mice at P12 (7–10 g body weight) were subcutaneously (s.c.) injected with KS-133 (1 nmol/g) and Ro 25-1553 (0.4 nmol/g, Peptide Institute, Inc. Osaka, Japan), a selective VIPR2 agonist ([Gourlet et al., 1997]; [Harmar et al., 2012]), and adult C57BL/6J mice at 8 weeks of age (20–30 g body weight) were intranasally (i.n.) injected with KS-133 (20 nmol/mouse) and BAY 55-9837 (20 µg/mouse, Tocris Bioscience, Bristol, United Kingdom), another selective VIPR2 agonist ([Tsutsumi et al., 2002]; [Tian et al., 2019]). The dosages of these drugs were determined in a preliminary experiment using the change in phosphorylation of cAMP-response element-binding protein (CREB) as an index. Ro 25-1553 was dissolved in phosphate-buffered saline (PBS) and BAY 55-9837 was dissolved in distilled water. KS-133 was dissolved in saline with 1% dimethyl sulfoxide (DMSO; #13445-74, Nacalai Tesque, Inc., Kyoto, Japan) for s.c. injection or saline with 5% DMSO and 5 mg/ml poly-L-arginine (#P7762, Sigma-Aldrich, St. Louis, MO, United States) for i.n. injection. […]
(§2) FIGURE 4 Effects of subcutaneous (A) and intranasal (B) administration of KS-133 on VIPR2 activation-induced phosphorylation of CREB in the prefrontal cortex of mice. Phospho-CREB (pCREB), total CREB, and β-actin levels were analyzed by western blotting. […]

[3] = test system: VIPR2 activation-induced phosphorylation of CREB; assay: Western blot of pCREB in prefrontal cortex of adult mice after i.n. injection; format: in vivo; conditions: mice at 8 weeks, KS-133 20 nmol/mouse i.n. with BAY 55-9837 20 µg/mouse, 45 min after injection
Procedure: as §1, §2

## CC[C@H](C)[C@H](NC(=O)[C@H](CC(C)C)NC(=O)[C@@H]1CC(=O)NCCCC[C@@H]2NC(=O)[C@@H]3CCCN3C(=O)[C@H](CC(C)C)NC(=O)[C@H](Cc3ccc(O)cc3)NC(=O)[C@@H]3CCCN3C(=O)[C@@H]3CCCN3C(=O)[C@@H](NC(C)=O)CSSC[C@H](NC(=O)[C@H](CC(C)C)NC(=O)[C@H](Cc3ccc(O)cc3)NC2=O)C(=O)N1)C(N)=O [KS-133, Ac-c[Cys-Pro-Pro-Tyr-Leu-Pro-c(Lys-Tyr-Leu-Cys]-Asp)-Leu-Ile-NH2] (Ac-CPPYLPKYLCDLI-NH2; disulfide 1-10; lactam 7-11)
[1]
  Effect on Ro 25-1553-induced recognition memory deficit, novel object recognition test: attenuated the decreases in the difference of time spent exploring each object and cognitive dysfunction
[2]
  Effect on Ro 25-1553-induced increase in CREB phosphorylation: suppressed the Ro 25-1553-induced increase in CREB phosphorylation
[3]
  Effect on BAY 55-9837-induced increase in phosphorylated CREB: blocked
